Data taken from PubChem BioAssay (NCI).
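Tested at 5 concentrations; 48 h exposure; 96-well plates; endpoints linearly interpolated, else capped at highest concentration. At the TGI there is no net growth.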

How the values were obtained:
Assay in all cases: inhibition of tumour cell growth, NCI panel, 48 h
OVCAR-5 ovarian = test system: OVCAR-5 ovarian
K-562 leukemia = test system: K-562 leukemia
U251 CNS = test system: U251 CNS
NCI/ADR-RES ovarian = test system: NCI/ADR-RES ovarian
NCI-H460 lung = test system: NCI-H460 lung
SNB-19 CNS = test system: SNB-19 CNS
A549 NSCLC = test system: A549 NSCLC
SK-MEL-28 melanoma = test system: SK-MEL-28 melanoma
SNB-75 CNS = test system: SNB-75 CNS
COLO 205 colon = test system: COLO 205 colon
DU-145 prostate = test system: DU-145 prostate
SK-MEL-5 melanoma = test system: SK-MEL-5 melanoma
OVCAR-3 ovarian = test system: OVCAR-3 ovarian
UO-31 renal = test system: UO-31 renal
SR leukemia = test system: SR leukemia
MDA-MB-231 breast = test system: MDA-MB-231 breast
M14 melanoma = test system: M14 melanoma
SF-295 CNS = test system: SF-295 CNS
RPMI-8226 leukemia = test system: RPMI-8226 leukemia
UACC-62 melanoma = test system: UACC-62 melanoma
KM12 colon = test system: KM12 colon
HL-60(TB) leukemia = test system: HL-60(TB) leukemia
HOP-62 NSCLC = test system: HOP-62 NSCLC
HCT-15 colon = test system: HCT-15 colon
OVCAR-8 ovarian = test system: OVCAR-8 ovarian
NCI-H23 lung = test system: NCI-H23 lung
SW-620 colon = test system: SW-620 colon
MDA-N = test system: MDA-N
TK-10 renal = test system: TK-10 renal
MCF7 breast = test system: MCF7 breast
RXF 393 renal = test system: RXF 393 renal
BT-549 breast = test system: BT-549 breast
LOX IMVI melanoma = test system: LOX IMVI melanoma
MDA-MB-435 = test system: MDA-MB-435
PC-3 prostate = test system: PC-3 prostate
HCT-116 colon = test system: HCT-116 colon
SF-268 CNS = test system: SF-268 CNS
HS 578T breast = test system: HS 578T breast
IGROV1 ovarian = test system: IGROV1 ovarian
UACC-257 melanoma = test system: UACC-257 melanoma
SK-OV-3 ovarian = test system: SK-OV-3 ovarian
OVCAR-4 ovarian = test system: OVCAR-4 ovarian
MOLT-4 leukemia = test system: MOLT-4 leukemia
CAKI-1 renal = test system: CAKI-1 renal
T-47D breast = test system: T-47D breast
HT29 colon = test system: HT29 colon
CCRF-CEM leukemia = test system: CCRF-CEM leukemia
EKVX NSCLC = test system: EKVX NSCLC
SK-MEL-2 melanoma = test system: SK-MEL-2 melanoma
786-0 renal = test system: 786-0 renal
SN12C renal = test system: SN12C renal
HCC-2998 colon = test system: HCC-2998 colon
A498 renal = test system: A498 renal
NCI-H226 lung = test system: NCI-H226 lung
ACHN renal = test system: ACHN renal
HOP-92 NSCLC = test system: HOP-92 NSCLC
SF-539 CNS = test system: SF-539 CNS
NCI-H522 lung = test system: NCI-H522 lung
MALME-3M melanoma = test system: MALME-3M melanoma

## N#Cc1c(NC(=S)NC(=O)c2ccccc2)nc2c(c1-c1ccccc1)CCCC2
OVCAR-5 ovarian
  TGI: > 100 µM
K-562 leukemia
  TGI: > 100 µM
U251 CNS
  TGI: > 100 µM
NCI/ADR-RES ovarian
  TGI: > 100 µM
NCI-H460 lung
  TGI: > 100 µM
SNB-19 CNS
  TGI: > 100 µM
A549 NSCLC
  TGI: > 100 µM
SK-MEL-28 melanoma
  TGI: > 100 µM
SNB-75 CNS
  TGI: 41.5 µM
COLO 205 colon
  TGI: > 100 µM
DU-145 prostate
  TGI: > 100 µM
SK-MEL-5 melanoma
  TGI: > 100 µM
OVCAR-3 ovarian
  TGI: > 100 µM
UO-31 renal
  TGI: > 100 µM
SR leukemia
  TGI: > 100 µM
MDA-MB-231 breast
  TGI: > 100 µM
M14 melanoma
  TGI: > 100 µM
SF-295 CNS
  TGI: > 100 µM
RPMI-8226 leukemia
  TGI: > 100 µM
UACC-62 melanoma
  TGI: > 100 µM
KM12 colon
  TGI: > 100 µM
HL-60(TB) leukemia
  TGI: > 100 µM
HOP-62 NSCLC
  TGI: > 100 µM
HCT-15 colon
  TGI: > 100 µM
OVCAR-8 ovarian
  TGI: > 100 µM
NCI-H23 lung
  TGI: > 100 µM
SW-620 colon
  TGI: > 100 µM
MDA-N
  TGI: > 100 µM
TK-10 renal
  TGI: > 100 µM
MCF7 breast
  TGI: > 100 µM
RXF 393 renal
  TGI: 56.5 µM
BT-549 breast
  TGI: 96.1 µM
LOX IMVI melanoma
  TGI: > 100 µM
MDA-MB-435
  TGI: > 100 µM
PC-3 prostate
  TGI: > 100 µM
HCT-116 colon
  TGI: > 100 µM
SF-268 CNS
  TGI: 27.2 µM
HS 578T breast
  TGI: 35 µM
IGROV1 ovarian
  TGI: > 100 µM
UACC-257 melanoma
  TGI: > 100 µM
SK-OV-3 ovarian
  TGI: 86.3 µM
OVCAR-4 ovarian
  TGI: > 100 µM
MOLT-4 leukemia
  TGI: > 100 µM
CAKI-1 renal
  TGI: > 100 µM
T-47D breast
  TGI: > 100 µM
HT29 colon
  TGI: > 100 µM
CCRF-CEM leukemia
  TGI: > 100 µM

## CNC1=CC(=O)C2=C(C1=O)[C@H]1CC[C@]3(C)C(=O)CC[C@H]3[C@@H]1CC2
OVCAR-5 ovarian
  TGI: 51 µM
K-562 leukemia
  TGI: > 57.5 µM
U251 CNS
  TGI: > 60.2 µM
NCI/ADR-RES ovarian
  TGI: 42.1 µM
NCI-H460 lung
  TGI: 39.5 µM
SNB-19 CNS
  TGI: 40.8 µM
A549 NSCLC
  TGI: 49.9 µM
EKVX NSCLC
  TGI: 29.9 µM
SK-MEL-28 melanoma
  TGI: 34.4 µM
SNB-75 CNS
  TGI: 27.8 µM
COLO 205 colon
  TGI: 33.3 µM
DU-145 prostate
  TGI: 28.8 µM
SK-MEL-5 melanoma
  TGI: 27.6 µM
OVCAR-3 ovarian
  TGI: 9.3 µM
UO-31 renal
  TGI: 49.2 µM
SR leukemia
  TGI: > 60.8 µM
SK-MEL-2 melanoma
  TGI: 17.1 µM
MDA-MB-231 breast
  TGI: > 64.8 µM
M14 melanoma
  TGI: 28 µM
SF-295 CNS
  TGI: 29.1 µM
RPMI-8226 leukemia
  TGI: 48.5 µM
UACC-62 melanoma
  TGI: 31.9 µM
KM12 colon
  TGI: 23.6 µM
786-0 renal
  TGI: 38.3 µM
HOP-62 NSCLC
  TGI: 29.8 µM
HCT-15 colon
  TGI: 27.5 µM
OVCAR-8 ovarian
  TGI: 29.5 µM
NCI-H23 lung
  TGI: 19.9 µM
SW-620 colon
  TGI: > 51.6 µM
MDA-N
  TGI: 25 µM
SN12C renal
  TGI: > 52.7 µM
HCC-2998 colon
  TGI: 31.7 µM
A498 renal
  TGI: 43.4 µM
TK-10 renal
  TGI: > 100 µM
MCF7 breast
  TGI: 47.5 µM
RXF 393 renal
  TGI: 41.1 µM
BT-549 breast
  TGI: 36 µM
LOX IMVI melanoma
  TGI: 23.7 µM
MDA-MB-435
  TGI: 13.1 µM
PC-3 prostate
  TGI: 38.9 µM
HCT-116 colon
  TGI: 35.7 µM
IGROV1 ovarian
  TGI: 16.1 µM
UACC-257 melanoma
  TGI: 28.8 µM
SK-OV-3 ovarian
  TGI: > 100 µM
OVCAR-4 ovarian
  TGI: 37.4 µM
MOLT-4 leukemia
  TGI: > 49.1 µM
NCI-H226 lung
  TGI: 25.5 µM
ACHN renal
  TGI: 71.4 µM
HOP-92 NSCLC
  TGI: 25.7 µM
SF-539 CNS
  TGI: 32.3 µM
CAKI-1 renal
  TGI: 33.6 µM
T-47D breast
  TGI: 57.9 µM
CCRF-CEM leukemia
  TGI: 30.4 µM

## Cc1ccc(S(N)(=O)=O)cc1
OVCAR-5 ovarian
  TGI: > 1000 µM
K-562 leukemia
  TGI: > 1000 µM
U251 CNS
  TGI: > 1000 µM
NCI/ADR-RES ovarian
  TGI: > 1000 µM
NCI-H460 lung
  TGI: > 1000 µM
SNB-19 CNS
  TGI: > 1000 µM
A549 NSCLC
  TGI: > 1000 µM
EKVX NSCLC
  TGI: > 1000 µM
COLO 205 colon
  TGI: > 1000 µM
DU-145 prostate
  TGI: > 1000 µM
SK-MEL-5 melanoma
  TGI: > 1000 µM
OVCAR-3 ovarian
  TGI: > 1000 µM
UO-31 renal
  TGI: > 1000 µM
SR leukemia
  TGI: > 1000 µM
SK-MEL-2 melanoma
  TGI: > 1000 µM
M14 melanoma
  TGI: > 1000 µM
SF-295 CNS
  TGI: > 1000 µM
RPMI-8226 leukemia
  TGI: > 1000 µM
UACC-62 melanoma
  TGI: > 1000 µM
KM12 colon
  TGI: > 1000 µM
786-0 renal
  TGI: > 1000 µM
HL-60(TB) leukemia
  TGI: > 1000 µM
HOP-62 NSCLC
  TGI: > 1000 µM
HCT-15 colon
  TGI: > 1000 µM
OVCAR-8 ovarian
  TGI: > 1000 µM
NCI-H23 lung
  TGI: > 1000 µM
SW-620 colon
  TGI: > 1000 µM
NCI-H522 lung
  TGI: > 1000 µM
MDA-N
  TGI: > 1000 µM
SN12C renal
  TGI: > 1000 µM
HCC-2998 colon
  TGI: > 1000 µM
A498 renal
  TGI: > 1000 µM
TK-10 renal
  TGI: > 1000 µM
MCF7 breast
  TGI: > 1000 µM
RXF 393 renal
  TGI: > 1000 µM
BT-549 breast
  TGI: > 1000 µM
LOX IMVI melanoma
  TGI: > 1000 µM
MDA-MB-435
  TGI: > 1000 µM
PC-3 prostate
  TGI: > 1000 µM
HCT-116 colon
  TGI: > 1000 µM
SF-268 CNS
  TGI: > 1000 µM
HS 578T breast
  TGI: > 1000 µM
IGROV1 ovarian
  TGI: > 1000 µM
UACC-257 melanoma
  TGI: > 1000 µM
SK-OV-3 ovarian
  TGI: > 1000 µM
MOLT-4 leukemia
  TGI: > 1000 µM
NCI-H226 lung
  TGI: > 1000 µM
ACHN renal
  TGI: > 1000 µM
HOP-92 NSCLC
  TGI: > 1000 µM
SF-539 CNS
  TGI: > 1000 µM
T-47D breast
  TGI: > 1000 µM
HT29 colon
  TGI: > 1000 µM
MALME-3M melanoma
  TGI: > 1000 µM
CCRF-CEM leukemia
  TGI: > 1000 µM

## CCOC(=O)C(NC(=O)Nc1ccc(Cl)c(Cl)c1)C(F)(F)F (stereo not drawn)
OVCAR-5 ovarian
  TGI: > 100 µM
K-562 leukemia
  TGI: > 100 µM
U251 CNS
  TGI: > 100 µM
NCI/ADR-RES ovarian
  TGI: > 100 µM
SNB-19 CNS
  TGI: > 100 µM
A549 NSCLC
  TGI: > 100 µM
EKVX NSCLC
  TGI: > 100 µM
SK-MEL-28 melanoma
  TGI: > 100 µM
SNB-75 CNS
  TGI: > 100 µM
COLO 205 colon
  TGI: > 100 µM
SK-MEL-5 melanoma
  TGI: > 100 µM
UO-31 renal
  TGI: > 100 µM
SR leukemia
  TGI: > 100 µM
SK-MEL-2 melanoma
  TGI: > 100 µM
M14 melanoma
  TGI: > 100 µM
RPMI-8226 leukemia
  TGI: > 100 µM
786-0 renal
  TGI: > 100 µM
HL-60(TB) leukemia
  TGI: > 100 µM
HCT-15 colon
  TGI: > 100 µM
OVCAR-8 ovarian
  TGI: > 100 µM
NCI-H23 lung
  TGI: > 100 µM
SW-620 colon
  TGI: > 100 µM
MDA-N
  TGI: > 100 µM
SN12C renal
  TGI: > 100 µM
HCC-2998 colon
  TGI: > 100 µM
A498 renal
  TGI: > 100 µM
TK-10 renal
  TGI: > 100 µM
RXF 393 renal
  TGI: > 100 µM
BT-549 breast
  TGI: > 100 µM
LOX IMVI melanoma
  TGI: > 100 µM
MDA-MB-435
  TGI: > 100 µM
PC-3 prostate
  TGI: > 100 µM
HCT-116 colon
  TGI: > 100 µM
SF-268 CNS
  TGI: > 100 µM
HS 578T breast
  TGI: > 100 µM
IGROV1 ovarian
  TGI: > 100 µM
UACC-257 melanoma
  TGI: > 100 µM
SK-OV-3 ovarian
  TGI: > 100 µM
MOLT-4 leukemia
  TGI: > 100 µM
ACHN renal
  TGI: > 100 µM
SF-539 CNS
  TGI: > 100 µM
T-47D breast
  TGI: > 100 µM
HT29 colon
  TGI: > 100 µM
CCRF-CEM leukemia
  TGI: > 100 µM
